Data as given in PubChem BioAssay (NCI).
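Method: 48-hour compound exposure of cells in 96-well plates, five concentrations, linear interpolation of endpoints. TGI: total growth inhibition.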 Where a SMILES comes first, the peptide text is derived from it. Bridges are numbered along the chain shown (N, C = ends). [ ]: non-standard residue; d: D form. The star is where a group is joined. Phe(4-NO2) = N[CH](Cc1ccc([N+](=O)[O-])cc1)C(=O)O; Cbz = O=C(OCc1ccccc1)*; PhAc = O=C(Cc1ccccc1)*

Tests used:
Test in all cases: NCI-60 cell line screen, 48 h
NCI/ADR-RES ovarian = system: NCI/ADR-RES ovarian
RXF 393 renal = system: RXF 393 renal
HOP-62 NSCLC = system: HOP-62 NSCLC
CAKI-1 renal = system: CAKI-1 renal
SF-268 CNS = system: SF-268 CNS
K-562 leukemia = system: K-562 leukemia
HCC-2998 colon = system: HCC-2998 colon
UACC-257 melanoma = system: UACC-257 melanoma
LOX IMVI melanoma = system: LOX IMVI melanoma
UO-31 renal = system: UO-31 renal
HCT-116 colon = system: HCT-116 colon
OVCAR-8 ovarian = system: OVCAR-8 ovarian
OVCAR-3 ovarian = system: OVCAR-3 ovarian
SK-MEL-2 melanoma = system: SK-MEL-2 melanoma
A549 NSCLC = system: A549 NSCLC
NCI-H23 lung = system: NCI-H23 lung
MOLT-4 leukemia = system: MOLT-4 leukemia
786-0 renal = system: 786-0 renal
NCI-H226 lung = system: NCI-H226 lung

SMILES	TGI (NCI/ADR-RES ovarian)	TGI (RXF 393 renal)	TGI (HOP-62 NSCLC)	TGI (CAKI-1 renal)	TGI (SF-268 CNS)	TGI (K-562 leukemia)	TGI (HCC-2998 colon)	TGI (UACC-257 melanoma)	TGI (LOX IMVI melanoma)	TGI (UO-31 renal)	TGI (HCT-116 colon)	TGI (OVCAR-8 ovarian)	TGI (OVCAR-3 ovarian)	TGI (SK-MEL-2 melanoma)	TGI (A549 NSCLC)	TGI (NCI-H23 lung)	TGI (MOLT-4 leukemia)	TGI (786-0 renal)	TGI (NCI-H226 lung)
O=Nc1c(-c2c(O)[nH]c3ccccc23)[nH]c2ccccc12	> 100 µM	13.2 µM	> 48.6 µM	41 µM	> 74.1 µM	> 100 µM	16.3 µM	> 72.3 µM	41.4 µM	13.4 µM	> 29.6 µM	> 45.5 µM	> 89.7 µM	7.62 µM	> 55.1 µM	> 44.6 µM	> 100 µM	> 49.9 µM	
Cc1n[n+](CC(=O)c2ccccc2)c2sc(N)nn12	> 100 µM	> 100 µM	> 100 µM	> 100 µM	> 100 µM	> 100 µM		> 100 µM	> 100 µM	> 100 µM	> 100 µM	> 100 µM	> 100 µM	> 100 µM	> 100 µM	> 100 µM	> 100 µM	> 100 µM	> 100 µM
O=C(Nc1ccc(Cl)cc1)NS(=O)(=O)c1coc2ccccc2c1=O	> 10 µM	> 10 µM	> 10 µM	> 10 µM	> 10 µM		> 10 µM	> 10 µM	> 10 µM		> 10 µM	> 10 µM	> 10 µM	> 10 µM	> 10 µM	> 10 µM	> 10 µM	> 10 µM	> 10 µM
CCCCC(C(=O)N/N=C/c1ccc([N+](=O)[O-])o1)C(=O)N/N=C/c1ccc([N+](=O)[O-])o1	5.91 µM	5.07 µM	28.8 µM	14.7 µM	20.3 µM	14.6 µM			5.92 µM	4.6 µM	2.9 µM	5.89 µM	5.65 µM	36.1 µM	41.4 µM	4.65 µM	7.72 µM	5.5 µM	5.1 µM
Cc1cc2nc3c(C#N)c(-c4ccccc4)/c(=C\Nc4ccc(Cl)cc4)c(=O)n3c2cc1C	> 100 µM	> 100 µM	> 100 µM	> 100 µM	> 100 µM		> 100 µM	> 100 µM	> 100 µM	> 100 µM	> 100 µM	> 100 µM	> 100 µM	> 100 µM	> 100 µM	> 100 µM		> 100 µM	> 100 µM
[O-]c1c[n+](CCCC[n+]2cc([O-])on2)no1	> 100 µM	> 100 µM	> 100 µM	> 100 µM	> 100 µM	> 100 µM	> 100 µM	> 100 µM	> 100 µM	> 100 µM	> 100 µM	> 100 µM	> 100 µM	> 100 µM	> 100 µM	> 100 µM	> 100 µM	> 100 µM	
CCCCOCn1c(=O)[nH]c(=O)c2ccccc21	> 100 µM	> 100 µM		> 100 µM		> 100 µM		> 100 µM	> 100 µM	46.7 µM	> 100 µM	> 100 µM	> 100 µM	> 100 µM	> 100 µM		> 100 µM	> 100 µM	> 100 µM
Cc1ccccc1[P+](C)(c1ccccc1C)c1ccccc1C	58.8 µM	> 100 µM	71.8 µM		> 100 µM		12.6 µM	15.8 µM	30.5 µM	34.8 µM	38.5 µM	45.4 µM	23.6 µM	34.7 µM	55.4 µM	27.3 µM		93.7 µM	35.7 µM
C=CCOc1ccc(/C(N=Nc2ccc(C)cc2)=N/NC(=O)c2ccccc2)cc1OC	> 100 µM		> 100 µM	> 100 µM	> 100 µM		76.5 µM	49.1 µM	41.5 µM	73.4 µM	82.6 µM	91.4 µM	> 100 µM	73.3 µM	64.9 µM	69.1 µM	> 100 µM	> 100 µM	58.4 µM
CC1(C)C=Cc2c(cc3oc4ccc5c(c4c(=O)c3c2O)C=CC(C)(C)O5)O1	> 100 µM	> 100 µM	> 100 µM	> 100 µM	> 100 µM		> 100 µM	> 100 µM	> 100 µM	> 100 µM	> 100 µM	> 100 µM	> 100 µM	> 100 µM	> 100 µM	> 100 µM	> 100 µM	> 100 µM	> 100 µM
Cc1ccc2c3c(cnc2n1)C(=O)OCCN3C	> 100 µM	> 100 µM	> 100 µM	> 100 µM	> 100 µM	> 100 µM	> 100 µM	> 100 µM	> 100 µM	> 100 µM	> 100 µM	> 100 µM	> 100 µM	> 100 µM	> 100 µM	> 100 µM	> 100 µM	> 100 µM	
CCOC(=O)CCC(NC(=O)OCc1ccccc1)C(=O)NC(CCC(=O)OCC)C(=O)NC(Cc1ccc([N+](=O)[O-])cc1)C(=O)NC(CCC(=O)OCC)C(=O)NC(CCC(=O)OCC)C(=O)OCC (centres undefined) (Cbz-E(OEt)E(OEt)[Phe(4-NO2)]E(OEt)E(OEt)-OEt; configuration not given here)	> 100 µM	> 100 µM	> 100 µM	> 100 µM				> 100 µM	> 100 µM	> 100 µM	> 100 µM	> 100 µM		> 100 µM	> 100 µM	> 100 µM	> 100 µM	> 100 µM	
O=C(Cc1ccccc1)N[C@@H]1COC(=O)[C@@H]2CCCN2C(=O)[C@@H]2CCCN2C1=O (PhAc-[dS]-Pro-Pro; ester 1-C)	> 100 µM	> 100 µM	> 100 µM	> 100 µM	> 100 µM		> 100 µM	> 100 µM	> 100 µM		> 100 µM	> 100 µM	> 100 µM	> 100 µM	> 100 µM	> 100 µM	> 100 µM	> 100 µM	
Cc1cc(=O)oc2cc(SC(=O)N(C)C)ccc12	> 100 µM	> 100 µM	> 100 µM	> 100 µM	> 100 µM		> 100 µM	> 100 µM	> 100 µM	> 100 µM	> 100 µM	> 100 µM	> 100 µM	> 100 µM	> 100 µM	> 100 µM	> 100 µM	> 100 µM	> 100 µM
CC(=O)OCC1OC(n2c(C#N)cc(=O)[nH]c2=O)CC1OC(C)=O (centres undefined)	> 100 µM	> 100 µM	> 100 µM	> 100 µM	> 100 µM	> 100 µM		> 100 µM	> 100 µM	> 100 µM	> 100 µM	> 100 µM	> 100 µM	> 100 µM	> 100 µM	> 100 µM	> 100 µM	> 100 µM	> 100 µM
CCSC1=N/C(=C\c2ccco2)C(NN)=N1	> 50 µM	> 50 µM	> 50 µM	> 50 µM	> 50 µM	> 50 µM		> 50 µM	> 50 µM	> 50 µM	> 50 µM	> 50 µM	> 50 µM	> 50 µM	> 50 µM	> 50 µM	> 50 µM	> 50 µM	> 50 µM
NC1OC(COC(=O)c2ccccc2)C(O)C(OC(=O)c2ccccc2)C1OC(=O)c1ccccc1 (centres undefined)	> 100 µM	31.3 µM	50.2 µM		67.4 µM			47.2 µM	34.7 µM	94.2 µM	34.2 µM	37.8 µM	75.5 µM	96.7 µM	48 µM	61.9 µM	54 µM	30.3 µM	43.1 µM
Cc1cc(N)ccc1N=Nc1ccc(S(=O)(=O)CCOS(=O)(=O)O)cc1	> 100 µM	23.7 µM	22.6 µM	8.61 µM	21.7 µM		6.74 µM	24.3 µM	2.97 µM	8.63 µM	12.6 µM	5.89 µM	9.55 µM	3.89 µM	21.5 µM	24.5 µM	> 32.5 µM	6.55 µM	15.6 µM
COc1ccc(/C=N/n2c(=O)[nH]c3ccccc3c2=O)cc1	> 100 µM		> 100 µM	> 100 µM	> 100 µM	> 100 µM		> 100 µM	> 100 µM	> 100 µM	> 100 µM	> 100 µM	> 100 µM	> 100 µM	> 100 µM	> 100 µM	> 100 µM	> 100 µM	> 100 µM
CCCc1cc(=O)oc2c(C=O)c(O)cc(O)c12	73 µM	53 µM	59.7 µM	75.8 µM	76.5 µM	> 100 µM	33.6 µM	65.2 µM	40.3 µM	60.2 µM	47.2 µM	62 µM	44.3 µM	48.4 µM	> 100 µM	48 µM	56.5 µM	> 100 µM	
CCCCCN1CCN(c2ncccn2)CC1	> 100 µM	> 100 µM	> 100 µM	> 100 µM	> 100 µM	> 100 µM	> 100 µM	> 100 µM	> 100 µM	> 100 µM	> 100 µM	> 100 µM	> 100 µM	> 100 µM	> 100 µM	> 100 µM		> 100 µM	
